This passage reports TGI and GI50 results from PubChem BioAssay (NCI).

Holding throughout (experiment): inhibition of tumour cell growth, NCI panel, 48 h
Experiment [1] has as its system A549 NSCLC.
For experiment [2], the system named is ACHN renal.
Experiment [3] deals with CAKI-1 renal.
Experiment [4] has as its system HCT-116 colon.
Experiment [5] concerns MALME-3M melanoma.
Experiment [6] has as its system MOLT-4 leukemia.
The subject of experiment [7] is OVCAR-3 ovarian.
The test system of experiment [8] is OVCAR-5 ovarian.
In experiment [9] the test system is SK-MEL-28 melanoma.
For experiment [10], the system named is SK-OV-3 ovarian.

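Briefly, cells in 96-well plates were exposed to five compound concentrations for 48 h, and endpoints were estimated by linear interpolation. GI50 marks 50% less growth. TGI: total growth inhibition.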

With `Cc1ccc(NC(c2ccccc2)P(=O)(c2ccccc2)c2ccccc2)cc1` (stereo not drawn), the TGI in experiment [1], in experiment [2], in experiment [3], in experiment [4], in [5] and in experiment [6] was over 100 µM each time. The TGI in experiment [7], in [8], in experiment [9] and in experiment [10] was over 100 µM each time.
Regarding `CNC(=O)OC1/C(C)=C\C(C)C(O)C(OC)CC(C)CC2=C(OC)C(=O)C=C(C2=O)N(C)C(=O)/C(C)=C/C=C\C1OC` (stereo not drawn), the TGI came out at 43.7 µM in [1]; 20.9 µM in [2]; 20.8 µM in experiment [3]; 21.1 µM in experiment [4]; 27.1 µM in experiment [5]; 3.74 µM in experiment [6]. The TGI in experiment [7] was determined as 16 µM; in experiment [8], 22.7 µM; in [9] it was 19.2 µM; in [10], 30 µM.
With `Clc1ccc(Cc2nc3cc(Cl)c(Cl)cc3n2CC2CCCN3CCCCC23)cc1` (stereo not drawn), the TGI is 26.2 µM in [1]; 22.2 µM in experiment [2]; 34.1 µM in experiment [3]; 21.8 µM in [4]; 20.9 µM in experiment [5]; over 100 µM in experiment [6]. The TGI is 28.5 µM in experiment [7], 26 µM in experiment [8], 20.8 µM in experiment [9] and 32.8 µM in experiment [10].
Regarding `COc1ccc2nc(-c3ccc(N)cc3)sc2c1`, the TGI in experiment [1], in [2], in experiment [3], in experiment [4], in experiment [5] and in experiment [6] was over 100 µM in each case. In addition, the TGI in experiment [7], in experiment [8], in experiment [9] and in [10] was over 100 µM in each case.
`Cc1ccc([N+](=O)[O-])cc1S(=O)(=O)Nc1ccc(C2=NN(S(=O)(=O)c3cc([N+](=O)[O-])ccc3C)C(c3ccccc3O)C2)cc1` (stereo not drawn): the TGI in experiment [1], in [2], in [3], in [4], in experiment [5] and in experiment [6] was over 100 µM in each case. The TGI in [7], in [8], in [9] and in experiment [10] was over 100 µM in each case.
In the case of `Cc1ccc(-c2ccc3c(c2)Sc2ccccc2O3)n1C`, the TGI in experiment [1] was over 100 µM; in experiment [2] it was over 100 µM; in experiment [3] it was over 73.1 µM; in [4], over 100 µM; in [5], 50 µM; in [6], over 67.8 µM. Besides, the TGI was over 100 µM in experiment [7], over 52.9 µM in [8], over 100 µM in [9] and over 100 µM in experiment [10].
For `NC1CC(=O)c2c(I)sc(I)c21` (stereo not drawn), the TGI in [1] was over 79.5 µM; in [2] it was 42.1 µM; in experiment [3] it was 27.1 µM; in experiment [4] it was over 49.4 µM; in [5], 29.8 µM; in experiment [6] it was 44.8 µM. For the same molecule, the TGI in [7] is 38.7 µM; in experiment [8] it was 53 µM; in experiment [9], 43.2 µM; in experiment [10], over 100 µM.
As for `CCOC(=O)CN(CC)C(=O)NC12CC3CC(CC(C3)C1)C2`, the TGI in experiment [1] is over 750 µM; in [3], 483 µM; in [4] it was 522 µM; in experiment [5], 378 µM; in experiment [6], 436 µM; in [7], 512 µM. In addition, the results for the TGI in experiment [8], in experiment [9] and in [10] were 545 µM, over 750 µM and 513 µM, respectively.
With `CC(NC(CC12CC3CC(CC(C3)C1)C2)C(N)=O)c1ccccc1` (stereo not drawn), the TGI in [1] is over 100 µM; in experiment [2] it was 57.6 µM; in experiment [3], 61.2 µM; in experiment [4], 42.2 µM; in experiment [5] it was 34.3 µM; in experiment [6] it was 39.6 µM. The TGI in experiment [7] is 26.6 µM; in experiment [8], 42.5 µM; in [9], 40.4 µM; in [10], over 100 µM.
For `CC(C)=CC(=O)c1[nH]c2ccccc2c1CC(=O)NCCc1cnc[nH]1`, the TGI in experiment [1], in experiment [2], in [3], in [4], in [5] and in experiment [6] was over 100 µM in each case. The TGI in [7], in experiment [8], in experiment [9] and in [10] was over 100 µM throughout.
For `COC(OC)c1cccc2c1C(=O)CCC1(CC2)OCCCCO1`, the TGI in experiment [1], in [2], in experiment [3], in experiment [4], in [5] and in [6] was over 100 µM throughout. Besides, the TGI in [7], in [8], in [9] and in experiment [10] was over 100 µM in each case.
`O=C1N[C@@H]([C@H]2CC[C@H](Cl)CN2)C(=O)N[C@H]1[C@H]1CC[C@H](Cl)CN1`: the TGI in experiment [1] was determined as 76.5 µM; in experiment [2], 1.5 µM; in experiment [3], 3.06 µM; in experiment [4], 32.7 µM; in [5], 8.59 µM; in experiment [6] it was 13.3 µM. Further, the TGI in [7] was 7.61 µM; in experiment [8], 9.05 µM; in experiment [9] it was 31.1 µM; in [10] it was 2.31 µM.
Consider `COc1cc2c(c(O)c1OC)C(O)C1CCC(=O)N1C2c1ccc2c(c1)OCO2` (stereo not drawn), for which the TGI in [1], in [2], in experiment [3], in experiment [4], in experiment [5] and in [6] was over 100 µM throughout. The TGI in experiment [7], in [8], in experiment [9] and in experiment [10] was over 100 µM each time.
`COc1ccc2cc(CNCCCCCCNC(=O)Nc3cccc4ccccc34)ccc2c1`: the TGI in experiment [1], in experiment [2], in experiment [3], in [4], in experiment [5] and in experiment [6] was over 100 µM in each case. Moreover, the TGI in experiment [7], in experiment [8], in [9] and in experiment [10] was over 100 µM throughout.
Take `O=C1OCOC2(CCCC2)C1c1ccccc1` (stereo not drawn): the TGI in experiment [1], in experiment [2], in experiment [3], in experiment [4], in [5] and in experiment [6] was over 100 µM in each case. Also, the TGI in experiment [7], in [8], in [9] and in experiment [10] was over 100 µM each time.
`CSC(SC)=C(C#N)C(=O)Nc1ccc(Cl)cc1`: the TGI was over 100 µM in experiment [1]; 78.9 µM in [3]; over 100 µM in [4]; over 100 µM in experiment [5]; 89.6 µM in [6]; over 100 µM in experiment [7]. Moreover, the TGI in experiment [8], in experiment [9] and in experiment [10] was over 100 µM in each case.
For the molecule `O=C(c1ccccc1)c1nn(-c2cccc(Cl)c2)c2nc3nc(-c4ccccc4)cc(=O)n3nc12`, the GI50 in [1], in [2], in [3], in experiment [4], in [5] and in experiment [6] was over 25 µM in each case. Moreover, the GI50 in experiment [7], in experiment [9] and in experiment [10] was over 25 µM each time. Moreover, the TGI in experiment [1], in [2], in experiment [3], in experiment [4], in experiment [5] and in [6] was over 25 µM each time. For the same molecule, the TGI in [7], in [9] and in experiment [10] was over 25 µM in each case.
In the case of `C=CCCCCCCCCCOC1C=CC(O)C(CO)O1` (stereo not drawn), the TGI was over 100 µM in experiment [1]; over 100 µM in experiment [2]; over 100 µM in [3]; over 100 µM in experiment [4]; 73.3 µM in [5]; 86.7 µM in experiment [6]. The TGI in [7], in experiment [8], in experiment [9] and in experiment [10] was over 100 µM in each case.
With `COc1ccc(N2C(=O)[C@@H]3[C@@H]4CC(C)CC[C@@H]4c4c([nH]c5ccccc45)[C@@H]3C2=O)cc1` (stereo partly drawn), the TGI in experiment [1] is over 68.3 µM; in experiment [2], 26.9 µM; in experiment [3] it was over 72.9 µM; in experiment [4], 20 µM; in [5] it was over 100 µM; in experiment [6], 61.3 µM. For the same molecule, the TGI in experiment [7] was 37.2 µM; in experiment [8], over 100 µM; in experiment [9], over 100 µM; in [10] it was 22.8 µM.
For the molecule `C/C(=C\COP(=O)(O)OP(=O)(O)O)CC/C=C(\C)CNc1c(F)c(F)c(F)c(F)c1F`, the TGI in experiment [1], in experiment [2], in experiment [3], in [4], in [5] and in experiment [6] was over 100 µM throughout. Further, the TGI in experiment [7], in experiment [8], in experiment [9] and in [10] was over 100 µM in each case.
For `COc1cc2c(cc1C)NC(=O)/C2=C/c1c(Cl)[nH]c2ccccc12`, the TGI in experiment [1] is over 100 µM; in [2], 22.4 µM; in experiment [3], 24.7 µM; in [4], 17 µM; in experiment [5], 15.3 µM; in experiment [6], 31.3 µM. For the same molecule, the TGI in experiment [7] came to 6.34 µM; in [8], 24.4 µM; in experiment [9], 20.8 µM; in [10] it was 7.71 µM.
For the molecule `NS(=O)(=O)c1ccc(Nc2c3ccccc3nc3c(C(=O)NC(CO)(CO)CO)cccc23)cc1`, the TGI was found to be 0.314 µM in [1]; 0.508 µM in [2]; 0.525 µM in experiment [3]; 0.327 µM in experiment [4]; 0.272 µM in experiment [5]; 0.195 µM in experiment [6]. Further, the TGI is 0.339 µM in experiment [7], 0.709 µM in experiment [8], 0.576 µM in experiment [9] and 0.468 µM in [10].
Take `C(/C=C(\Nc1ccccc1)c1ccc2ccccc2c1)=Nc1ccccc1`: the TGI in [1] amounted to 18.4 µM; in experiment [2] it was 11.5 µM; in experiment [3] it was 7.22 µM; in experiment [4], 10 µM; in [5], 15 µM; in experiment [6], 2.62 µM. Also, the TGI in experiment [7] came to 4.08 µM; in [8], 9.86 µM; in experiment [9], 0.961 µM; in experiment [10], 11.5 µM.
Consider `O=S(c1ccc(O)cc1)c1ccc(O)cc1`, for which the TGI in experiment [1], in [3], in experiment [4], in experiment [5], in experiment [6] and in [7] was over 100 µM throughout. Also, the TGI in experiment [8], in experiment [9] and in [10] was over 100 µM in each case.
For `CC(=O)OC1CCC2(C)C(CCC3C2CCC2(C)C(c4ccc(=O)oc4)C(OC(C)=O)CC32O)C1` (stereo not drawn), the TGI was 0.0157 µM in experiment [1]; 0.0194 µM in experiment [3]; 0.036 µM in experiment [4]; 0.017 µM in experiment [5]; 0.0227 µM in experiment [6]; 0.0235 µM in [7]. In addition, the TGI in [8] came out at 0.173 µM; in experiment [9] it was 0.497 µM; in experiment [10], 0.103 µM.
Regarding `O=C(O)COc1c(Cl)cc(Cl)c(C(c2c(Cl)cc(Cl)c(OCC(=O)O)c2Cl)C(Cl)(Cl)Cl)c1Cl`, the TGI is 83.8 µM in experiment [1]; over 100 µM in [2]; over 100 µM in experiment [3]; over 100 µM in experiment [4]; 76.7 µM in [5]; over 100 µM in experiment [6]. Also, the TGI in [8] was 67.6 µM; in experiment [9] it was over 100 µM; in [10], 47.2 µM.
